{"source": "ChEMBL document CHEMBL5291721", "about": "“A preclinical secondary pharmacology resource illuminates target-adverse drug reaction associations of marketed drugs” (Nat Commun, 2023); also: assay procedure not described here", "key": {"[1]": {"molecular_target": "Vascular endothelial growth factor receptor 2 (Homo sapiens, UniProt P35968)", "assay_type": "functional"}, "[2]": {"molecular_target": "Glutamate receptor ionotropic, NMDA 1 (Rattus norvegicus, UniProt P35439)"}, "Histamine H1 receptor": {"molecular_target": "Histamine H1 receptor (Homo sapiens, UniProt P35367)", "sequence (P35367 whole entry)": "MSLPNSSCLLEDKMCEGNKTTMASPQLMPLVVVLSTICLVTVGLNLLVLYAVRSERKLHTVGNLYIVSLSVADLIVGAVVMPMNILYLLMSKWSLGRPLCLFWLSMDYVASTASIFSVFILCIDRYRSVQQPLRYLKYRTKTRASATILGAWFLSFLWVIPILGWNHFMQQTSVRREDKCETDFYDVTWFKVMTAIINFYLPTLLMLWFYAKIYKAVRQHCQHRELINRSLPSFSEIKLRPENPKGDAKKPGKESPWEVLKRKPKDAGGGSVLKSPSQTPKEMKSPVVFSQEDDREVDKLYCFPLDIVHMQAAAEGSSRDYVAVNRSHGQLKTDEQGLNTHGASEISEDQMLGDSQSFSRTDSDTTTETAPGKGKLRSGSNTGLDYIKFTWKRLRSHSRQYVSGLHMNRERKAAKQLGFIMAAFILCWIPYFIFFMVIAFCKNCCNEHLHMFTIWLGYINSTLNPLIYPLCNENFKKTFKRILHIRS"}, "Histamine H2 receptor": {"molecular_target": "Histamine H2 receptor (Homo sapiens, UniProt P25021)", "assay_type": "functional, cell-based"}, "[3]": {"molecular_target": "T1, Muscarinic acetylcholine receptor M1 (Homo sapiens, UniProt P11229)", "T1 sequence (P11229 whole entry)": "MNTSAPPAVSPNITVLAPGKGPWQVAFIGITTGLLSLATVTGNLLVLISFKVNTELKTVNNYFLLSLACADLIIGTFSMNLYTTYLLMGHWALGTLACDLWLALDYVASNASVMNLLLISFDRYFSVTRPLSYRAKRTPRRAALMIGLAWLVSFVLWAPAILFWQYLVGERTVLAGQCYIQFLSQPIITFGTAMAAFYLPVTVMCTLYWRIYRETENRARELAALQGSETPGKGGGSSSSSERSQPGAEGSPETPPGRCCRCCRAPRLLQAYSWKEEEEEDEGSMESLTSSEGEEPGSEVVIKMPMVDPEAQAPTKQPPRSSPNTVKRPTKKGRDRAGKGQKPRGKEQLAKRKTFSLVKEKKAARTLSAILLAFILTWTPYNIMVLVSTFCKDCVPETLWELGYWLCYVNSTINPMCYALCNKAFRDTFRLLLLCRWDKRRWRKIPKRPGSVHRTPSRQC", "assay_type": "functional, cell-based"}, "Melanocortin receptor 3": {"molecular_target": "Melanocortin receptor 3 (Homo sapiens, UniProt P41968)", "sequence (P41968 whole entry)": "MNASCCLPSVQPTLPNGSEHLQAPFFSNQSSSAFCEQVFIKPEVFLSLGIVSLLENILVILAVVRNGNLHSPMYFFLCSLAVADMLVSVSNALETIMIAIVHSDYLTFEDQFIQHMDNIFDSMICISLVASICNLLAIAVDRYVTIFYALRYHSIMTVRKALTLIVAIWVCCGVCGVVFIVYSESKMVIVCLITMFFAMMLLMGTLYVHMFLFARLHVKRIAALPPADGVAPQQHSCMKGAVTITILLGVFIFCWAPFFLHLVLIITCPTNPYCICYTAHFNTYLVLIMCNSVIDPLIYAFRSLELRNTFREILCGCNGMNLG"}, "[4]": {"molecular_target": "T2, Amine oxidase [flavin-containing] A (Homo sapiens, UniProt P21397)", "T2 sequence (P21397 whole entry)": "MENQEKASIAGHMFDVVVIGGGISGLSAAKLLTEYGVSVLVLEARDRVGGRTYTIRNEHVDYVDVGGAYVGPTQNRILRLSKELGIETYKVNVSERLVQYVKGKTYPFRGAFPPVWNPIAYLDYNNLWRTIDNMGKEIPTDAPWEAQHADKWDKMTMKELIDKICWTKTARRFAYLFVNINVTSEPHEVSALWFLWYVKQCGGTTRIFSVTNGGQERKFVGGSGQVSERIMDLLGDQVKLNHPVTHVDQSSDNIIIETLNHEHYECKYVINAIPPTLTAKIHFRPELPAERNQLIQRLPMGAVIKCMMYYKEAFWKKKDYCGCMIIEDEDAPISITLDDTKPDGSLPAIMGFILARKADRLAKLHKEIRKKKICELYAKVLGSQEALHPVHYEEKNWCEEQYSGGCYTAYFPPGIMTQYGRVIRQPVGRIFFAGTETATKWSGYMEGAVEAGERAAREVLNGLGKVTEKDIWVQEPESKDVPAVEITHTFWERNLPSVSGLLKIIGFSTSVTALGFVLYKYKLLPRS", "assay_type": "functional"}, "Adenosine receptor A2a": {"molecular_target": "Adenosine receptor A2a (Homo sapiens, UniProt P29274)", "sequence (P29274 whole entry)": "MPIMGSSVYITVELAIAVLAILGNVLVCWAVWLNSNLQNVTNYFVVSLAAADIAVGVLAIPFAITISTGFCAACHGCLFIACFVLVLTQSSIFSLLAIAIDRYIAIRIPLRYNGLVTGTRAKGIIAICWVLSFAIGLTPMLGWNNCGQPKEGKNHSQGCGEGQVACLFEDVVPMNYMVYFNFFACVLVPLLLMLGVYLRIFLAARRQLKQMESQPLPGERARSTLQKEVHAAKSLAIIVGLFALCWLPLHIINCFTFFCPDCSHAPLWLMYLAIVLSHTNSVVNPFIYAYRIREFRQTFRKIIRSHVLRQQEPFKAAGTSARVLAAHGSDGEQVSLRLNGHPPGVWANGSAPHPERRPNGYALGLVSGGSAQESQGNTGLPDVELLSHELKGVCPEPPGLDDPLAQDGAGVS"}, "[5]": {"molecular_target": "T3, 5-hydroxytryptamine receptor 2C (Homo sapiens, UniProt P28335)", "T3 sequence (P28335 whole entry)": "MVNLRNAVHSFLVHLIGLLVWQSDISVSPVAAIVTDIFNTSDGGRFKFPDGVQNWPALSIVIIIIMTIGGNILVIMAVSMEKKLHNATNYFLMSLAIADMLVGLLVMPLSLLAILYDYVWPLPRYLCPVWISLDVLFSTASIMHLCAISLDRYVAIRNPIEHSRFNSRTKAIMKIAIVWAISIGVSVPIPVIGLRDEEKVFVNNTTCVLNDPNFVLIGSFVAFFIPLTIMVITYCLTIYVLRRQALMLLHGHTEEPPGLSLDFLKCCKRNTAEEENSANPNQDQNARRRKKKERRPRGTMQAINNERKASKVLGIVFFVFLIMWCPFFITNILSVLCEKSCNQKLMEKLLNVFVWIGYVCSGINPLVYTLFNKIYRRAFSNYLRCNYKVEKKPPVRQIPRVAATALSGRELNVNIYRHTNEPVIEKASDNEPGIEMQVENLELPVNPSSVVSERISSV"}, "[6]": {"molecular_target": "Sodium-dependent dopamine transporter (Homo sapiens, UniProt Q01959)"}, "[7]": {"molecular_target": "Gamma-aminobutyric acid receptor subunit alpha-1/alpha-2/beta-2/gamma-2 (Homo sapiens, UniProt P14867+P18507+P47869+P47870)", "sequence (P14867 whole entry)": "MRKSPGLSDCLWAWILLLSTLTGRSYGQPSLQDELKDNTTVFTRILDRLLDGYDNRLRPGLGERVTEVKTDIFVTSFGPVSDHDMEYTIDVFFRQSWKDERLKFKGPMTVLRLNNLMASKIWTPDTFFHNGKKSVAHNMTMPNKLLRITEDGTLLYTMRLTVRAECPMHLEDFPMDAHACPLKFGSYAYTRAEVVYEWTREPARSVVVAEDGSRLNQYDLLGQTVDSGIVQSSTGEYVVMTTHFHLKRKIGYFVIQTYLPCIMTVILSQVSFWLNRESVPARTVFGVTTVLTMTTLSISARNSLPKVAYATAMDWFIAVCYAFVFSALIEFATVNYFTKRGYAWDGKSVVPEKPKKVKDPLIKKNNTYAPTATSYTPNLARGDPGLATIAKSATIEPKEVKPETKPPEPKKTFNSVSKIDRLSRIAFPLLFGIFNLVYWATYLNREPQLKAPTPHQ", "sequence (P47870 whole entry)": "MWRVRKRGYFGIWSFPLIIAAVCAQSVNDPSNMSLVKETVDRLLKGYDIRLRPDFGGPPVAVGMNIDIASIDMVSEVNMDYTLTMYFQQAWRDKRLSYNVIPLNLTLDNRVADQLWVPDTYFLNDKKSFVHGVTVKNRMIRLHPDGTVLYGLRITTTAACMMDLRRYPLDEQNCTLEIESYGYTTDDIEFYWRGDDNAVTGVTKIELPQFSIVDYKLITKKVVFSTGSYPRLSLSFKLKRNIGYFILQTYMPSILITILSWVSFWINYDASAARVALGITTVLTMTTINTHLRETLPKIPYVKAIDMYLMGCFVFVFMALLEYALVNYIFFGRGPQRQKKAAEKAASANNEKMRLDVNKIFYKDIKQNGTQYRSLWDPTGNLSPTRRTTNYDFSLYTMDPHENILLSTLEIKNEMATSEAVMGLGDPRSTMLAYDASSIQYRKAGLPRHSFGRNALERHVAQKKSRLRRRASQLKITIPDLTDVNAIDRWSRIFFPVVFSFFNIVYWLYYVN", "sequence (P18507 whole entry)": "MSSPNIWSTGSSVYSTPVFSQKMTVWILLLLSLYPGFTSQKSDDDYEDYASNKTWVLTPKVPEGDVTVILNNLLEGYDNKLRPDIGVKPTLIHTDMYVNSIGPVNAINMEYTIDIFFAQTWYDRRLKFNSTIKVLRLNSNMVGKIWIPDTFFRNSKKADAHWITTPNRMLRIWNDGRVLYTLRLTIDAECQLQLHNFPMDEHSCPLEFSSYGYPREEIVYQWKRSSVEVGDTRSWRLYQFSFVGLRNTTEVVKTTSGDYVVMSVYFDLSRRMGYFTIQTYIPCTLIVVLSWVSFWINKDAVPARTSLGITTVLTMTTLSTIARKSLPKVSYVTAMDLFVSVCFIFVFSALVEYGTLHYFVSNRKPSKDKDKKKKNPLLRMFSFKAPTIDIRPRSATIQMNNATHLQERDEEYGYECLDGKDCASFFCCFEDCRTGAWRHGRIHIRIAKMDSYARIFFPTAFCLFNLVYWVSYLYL", "sequence (P47869 whole entry)": "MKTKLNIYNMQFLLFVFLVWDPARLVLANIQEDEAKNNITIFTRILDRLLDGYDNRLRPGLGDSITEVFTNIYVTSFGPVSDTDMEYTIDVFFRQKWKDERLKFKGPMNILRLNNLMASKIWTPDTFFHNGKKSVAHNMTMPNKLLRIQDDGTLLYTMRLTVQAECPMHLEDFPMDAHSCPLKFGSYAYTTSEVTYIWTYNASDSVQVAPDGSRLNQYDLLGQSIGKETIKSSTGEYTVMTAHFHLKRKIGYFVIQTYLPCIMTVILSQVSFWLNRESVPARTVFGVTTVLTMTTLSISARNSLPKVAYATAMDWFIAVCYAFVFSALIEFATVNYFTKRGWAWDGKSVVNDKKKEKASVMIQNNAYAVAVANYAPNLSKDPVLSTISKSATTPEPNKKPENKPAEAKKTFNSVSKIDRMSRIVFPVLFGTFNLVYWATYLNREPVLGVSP", "assay_type": "protein-complex assay"}, "[8]": {"molecular_target": "Gamma-aminobutyric acid receptor subunit alpha-1 (Rattus norvegicus, UniProt P62813)", "assay_type": "functional"}, "D(3) dopamine receptor": {"molecular_target": "D(3) dopamine receptor (Homo sapiens, UniProt P35462)", "sequence (P35462 whole entry)": "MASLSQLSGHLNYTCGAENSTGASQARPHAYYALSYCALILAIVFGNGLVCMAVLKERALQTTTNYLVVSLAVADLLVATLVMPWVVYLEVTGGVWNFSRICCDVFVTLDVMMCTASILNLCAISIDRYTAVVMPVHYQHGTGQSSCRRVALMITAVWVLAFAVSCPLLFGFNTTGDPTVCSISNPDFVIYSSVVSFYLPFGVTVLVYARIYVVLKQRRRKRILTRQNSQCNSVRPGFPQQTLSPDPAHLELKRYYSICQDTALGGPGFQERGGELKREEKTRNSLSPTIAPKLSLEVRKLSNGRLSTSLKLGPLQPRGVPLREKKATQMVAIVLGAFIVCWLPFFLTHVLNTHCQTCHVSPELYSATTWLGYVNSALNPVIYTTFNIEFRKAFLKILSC"}, "[9]": {"molecular_target": "Sodium-dependent noradrenaline transporter (Homo sapiens, UniProt P23975)", "sequence (P23975 whole entry)": "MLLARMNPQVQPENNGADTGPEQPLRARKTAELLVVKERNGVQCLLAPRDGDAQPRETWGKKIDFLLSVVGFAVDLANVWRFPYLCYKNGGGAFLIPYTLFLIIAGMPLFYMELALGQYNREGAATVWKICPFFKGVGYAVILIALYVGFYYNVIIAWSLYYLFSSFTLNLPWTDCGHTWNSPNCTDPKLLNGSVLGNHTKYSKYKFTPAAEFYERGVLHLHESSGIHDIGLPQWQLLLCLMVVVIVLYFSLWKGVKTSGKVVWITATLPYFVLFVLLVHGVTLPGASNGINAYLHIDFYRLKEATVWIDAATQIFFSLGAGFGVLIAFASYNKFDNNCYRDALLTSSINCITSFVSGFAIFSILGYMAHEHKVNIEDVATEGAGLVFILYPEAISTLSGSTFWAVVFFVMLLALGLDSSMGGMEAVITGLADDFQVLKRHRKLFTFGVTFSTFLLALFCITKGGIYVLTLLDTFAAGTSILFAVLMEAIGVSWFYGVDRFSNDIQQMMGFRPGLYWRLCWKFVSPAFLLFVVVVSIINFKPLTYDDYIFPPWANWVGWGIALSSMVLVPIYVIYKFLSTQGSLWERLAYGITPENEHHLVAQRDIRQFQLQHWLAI"}, "[10]": {"molecular_target": "T4, Alpha-2A adrenergic receptor (Homo sapiens, UniProt P08913)", "T4 sequence (P08913 whole entry)": "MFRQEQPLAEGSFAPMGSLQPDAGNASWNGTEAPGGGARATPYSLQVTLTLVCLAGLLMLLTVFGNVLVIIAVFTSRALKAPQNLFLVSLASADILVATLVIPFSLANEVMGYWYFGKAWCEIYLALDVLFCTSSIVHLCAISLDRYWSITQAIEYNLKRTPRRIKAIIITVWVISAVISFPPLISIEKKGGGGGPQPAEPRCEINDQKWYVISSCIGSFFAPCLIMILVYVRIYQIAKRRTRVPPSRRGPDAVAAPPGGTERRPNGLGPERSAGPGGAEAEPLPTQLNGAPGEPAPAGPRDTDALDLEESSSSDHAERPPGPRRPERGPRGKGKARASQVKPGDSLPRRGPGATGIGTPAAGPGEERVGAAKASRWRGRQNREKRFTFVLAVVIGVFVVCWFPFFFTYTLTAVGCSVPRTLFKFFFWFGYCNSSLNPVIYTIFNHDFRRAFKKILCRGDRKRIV", "assay_type": "functional, cell-based"}, "[11]": {"molecular_target": "3',5'-cyclic-AMP phosphodiesterase 4D (Homo sapiens, UniProt Q08499)", "sequence (Q08499 whole entry)": "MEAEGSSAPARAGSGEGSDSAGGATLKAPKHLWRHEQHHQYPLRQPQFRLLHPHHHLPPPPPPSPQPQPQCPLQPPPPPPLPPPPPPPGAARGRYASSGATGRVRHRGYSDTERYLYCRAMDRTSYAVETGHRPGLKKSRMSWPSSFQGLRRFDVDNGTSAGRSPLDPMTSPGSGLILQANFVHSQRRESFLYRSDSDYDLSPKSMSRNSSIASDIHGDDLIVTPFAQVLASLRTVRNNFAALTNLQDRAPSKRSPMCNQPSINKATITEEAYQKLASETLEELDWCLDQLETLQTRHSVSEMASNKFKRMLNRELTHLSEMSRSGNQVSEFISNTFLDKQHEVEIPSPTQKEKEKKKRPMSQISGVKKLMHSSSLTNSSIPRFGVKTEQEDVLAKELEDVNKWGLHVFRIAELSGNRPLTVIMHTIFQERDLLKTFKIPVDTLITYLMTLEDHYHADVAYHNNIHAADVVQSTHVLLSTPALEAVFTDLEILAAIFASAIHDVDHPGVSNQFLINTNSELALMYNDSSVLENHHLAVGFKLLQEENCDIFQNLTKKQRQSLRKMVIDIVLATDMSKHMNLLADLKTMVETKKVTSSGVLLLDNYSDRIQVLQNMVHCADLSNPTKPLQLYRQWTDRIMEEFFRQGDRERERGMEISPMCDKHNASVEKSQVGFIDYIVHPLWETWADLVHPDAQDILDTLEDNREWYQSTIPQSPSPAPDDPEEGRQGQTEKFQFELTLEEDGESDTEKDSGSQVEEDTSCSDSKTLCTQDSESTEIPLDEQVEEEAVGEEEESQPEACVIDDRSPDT", "assay_type": "functional"}, "[12]": {"molecular_target": "T1, Muscarinic acetylcholine receptor M1", "assay_type": "functional"}}, "data": [{"smiles": "O=C(Nc1ccccc1)OCC(CN1CCCCC1)OC(=O)Nc1ccccc1", "note": "(configuration not stated) [DIPERODON]", "values": [{"measurement": "AC50", "setting": "[1]", "result": "> 30", "unit": "µM"}, {"measurement": "AC50", "setting": "[2]", "result": "> 10", "unit": "µM"}, {"measurement": "AC50", "setting": "Histamine H1 receptor", "result": "> 10", "unit": "µM"}, {"measurement": "AC50", "setting": "Histamine H2 receptor", "result": "> 10", "unit": "µM"}, {"measurement": "AC50", "setting": "[3]", "result": "> 30", "unit": "µM"}, {"measurement": "AC50", "setting": "Melanocortin receptor 3", "result": "> 30", "unit": "µM"}, {"measurement": "AC50", "setting": "[4]", "result": "> 10", "unit": "µM"}, {"measurement": "AC50", "setting": "Adenosine receptor A2a", "result": "> 30", "unit": "µM"}, {"measurement": "AC50", "setting": "[5]", "result": "> 10", "unit": "µM"}, {"measurement": "AC50", "setting": "[6]", "result": 6.69, "unit": "µM"}, {"measurement": "AC50", "setting": "[7]", "result": "> 30", "unit": "µM"}, {"measurement": "AC50", "setting": "[8]", "result": "> 10", "unit": "µM"}, {"measurement": "AC50", "setting": "D(3) dopamine receptor", "result": 1.3, "unit": "µM"}, {"measurement": "AC50", "setting": "[9]", "result": 1.1, "unit": "µM"}, {"measurement": "AC50", "setting": "[10]", "result": "> 10", "unit": "µM"}, {"measurement": "AC50", "setting": "[11]", "result": "> 10", "unit": "µM"}, {"measurement": "AC50", "setting": "[12]", "result": "> 10", "unit": "µM"}]}]}
